This passage reports melting point results from patent US7196104B2, “Thiazolyl urea compounds and methods of uses” (Amgen, Inc., priority 2000, dated 2007).

In turn, `O=C(Nc1ccccn1)Nc1csc(-c2ccccn2)n1` [Example 5, N-[2-(2-Pyridinyl)-4-thiazolyl]-N′-2-pyridinylurea] gave a melting point of 233 to 235 °C.

Turning to `CCCc1cccc(NC(=O)Nc2csc(-c3ccnc(CC)c3)n2)n1` [Example 14, N-[2-(2-Ethyl-4-pyridinyl)-4-thiazolyl]-N′-2-(6-propylpyridinyl)urea], the melting point was in the range of 204 to 206 °C.

For `CN1CCN(c2cccc(NC(=O)Nc3csc(-c4ccncc4)n3)n2)CC1` [Example 31, N-[2-(4-Pyridinyl)-4-thiazolyl]-N′-2-[6-(1-methyl-4-piperazinyl)pyridinyl]urea], the melting point was 251 to 253 °C.

The molecule `O=C(Nc1cccc(NCCCN2CCOCC2)n1)Nc1csc(-c2ccncc2)n1` [Example 33] gave a melting point of 215 to 217 °C.

On to `NC(=O)c1ccc(NC(=O)Nc2csc(-c3ccncc3)n2)nc1` [Example 34, [[(2-(4-Pyridinyl)-4-thiazolylamino)carbonyl]amino]-2-pyridinyl-5-carboxamide], for which the melting point fell in the range of 255 to 257 °C.

Molecule `CN(C)CCNc1cccc(NC(=O)Nc2csc(-c3ccncc3)n2)n1` [Example 35, N-[2-(4-Pyridinyl)-4-thiazolyl]-N′-2-[6-(N″,N″-aminoethylamino)pyridinyl]urea] yielded a melting point of 210 to 212 °C.

`CC(C)(C)c1cc(NC(=O)Nc2csc(-c3cccnc3)n2)no1` [Example 37, N-[2-(3-Pyridinyl)-4-thiazolyl]-N′-[5-(1,1-dimethylethyl)-3-isoxazolyl]urea]: the melting point lay within 230 to 232 °C.

In turn, `Cc1ccc(NC(=O)Nc2csc(-c3ccccn3)n2)nc1` [Example 38, N-[2-(2-Pyridinyl)-4-thiazolyl]-N′-2-(5-methylpyridinyl)urea] showed a melting point of 228 to 230 °C.

The molecule `Cc1cc(C)nc(NC(=O)Nc2csc(-c3ccccn3)n2)c1` [Example 40, N-[2-(2-Pyridinyl)-4-thiazolyl]-N′-2-(4,6-dimethylpyridinyl)urea] gave a melting point of 232 to 234 °C.

In turn, `Cc1ccc2nc(NC(=O)Nc3csc(-c4ccccn4)n3)sc2c1` [Example 41, N-[2-(2-Pyridinyl)-4-thiazolyl]-N′-2-(6-methylbenzthiazolyl)urea] yielded a melting point of 263 to 265 °C.

For the molecule `Cc1ccnc(NC(=O)Nc2csc(-c3ccccn3)n2)c1` [Example 42, N-[2-(2-Pyridinyl)-4-thiazolyl]-N′-2-(4-methylpyridinyl)urea], the melting point was 217 to 219 °C.

Turning to `CCc1cccc(NC(=O)Nc2csc(-c3ccccn3)n2)n1` [Example 44, N-[2-(2-Pyridinyl)-4-thiazolyl]-N′-2-(6-ethylpyridinyl)urea], the melting point lay within 213 to 215 °C.

Regarding `CCCc1cccc(NC(=O)Nc2csc(-c3ccc(OC)cc3)n2)n1` [Example 45, N-[2-(4-Methoxyphenyl)-4-thiazolyl]-N′-2-(6-propylpyridinyl)urea], the melting point lay in the range of 223 to 225 °C.

`CCCc1cccc(NC(=O)Nc2csc(-c3ccc(O)cc3)n2)n1` [Example 46, N-[2-(4-Hydroxyphenyl)-4-thiazolyl]-N′-2-(6-propylpyridinyl)urea] had a melting point of 227 to 229 °C.

With `CCCc1cccc(NC(=O)Nc2csc(-c3cccc(OC)c3)n2)n1` [Example 47, N-[2-(3-Methoxyphenyl)-4-thiazolyl]-N′-2-(6-propylpyridinyl)urea], the melting point was 192 to 194 °C.

Consider `COc1cccc(-c2nc(NC(=O)Nc3ccccn3)cs2)c1` [Example 48, N-[2-(3-Methoxyphenyl)-4-thiazolyl]-N′-2-pyridinylurea], for which the melting point was in the range of 201 to 203 °C.

Take `CCc1ccnc(NC(=O)Nc2csc(-c3ccccn3)n2)c1` [Example 50, N-[2-(2-Pyridinyl)-4-thiazolyl]-N′-2-(4-ethylpyridinyl)urea]: the melting point was 196 to 198 °C.

The molecule `CCCc1cccc(NC(=O)Nc2csc(-c3ccccn3)n2)n1` [Example 51, N-[2-(2-Pyridinyl)-4-thiazolyl]-N′-2-(6-propylpyridinyl)urea] yielded a melting point of 210 to 212 °C.

`CCCc1cccc(NC(=O)Nc2cccc(-c3ccncc3)c2)n1` [Example 54, N-[3-(4-Pyridinyl)phenyl]-N′-2-(6-propylpyridinyl)urea] had a melting point of 195 to 198 °C.

As usually defined, the melting point is the temperature, or range, at which the solid turns liquid.
